This note sets out measurements from US20140206682A1, “COMPOUNDS AND COMPOSITIONS AS PDGFR KINASE INHIBITORS” (NOVARTIS PHARMACEUTICALS UK LIMITED, priority 2011, published 2014).

Broadly, the IC50 is the point on the concentration scale where inhibition reaches its midpoint.

For the first assay, the system named is PDGFR. The assay is described as follows: Rat A10 cell proliferation assay. The class given is cell-based. The following applies: Table 1; Rat A10 cells, recombinant rat PDGF-BB, CellTiter-Glo after 68 hours. As to the method: Compounds of Formula (I) provided herein were assayed to measure their capacity to inhibit c-kit and PDGFR kinases using the appropriate assay described below: c-Kit inhibition was evaluated using the Mo7e cell proliferation assay, and PDGFR inhibition was evaluated using the Rat A10 cell proliferation assay and the Human TG/HA-VSMC cell proliferation assay.
Rat A10 cells (ATCC) were resuspended in DMEM supplemented with 1% FBS and 10 ng/mL recombinant rat PDGF-BB at 20,000 cells/mL. The cells were aliquoted into 384 well plates at 50 μL/well and incubated for 4 hours at 37° C. 0.5 μL of test compound 3-fold serially diluted in DMSO was added to each well. The plates were returned to the incubator for a further 68 hours. 25 μL of CellTiter-Glo (Promega) was added to each well and the plates were incubated on the bench for 15 minutes. Luminescence was then read using a CLIPR CCD camera (Molecular Devices).
In general terms: ATP-based viability assays read luminescence as a measure of living cells.
On to `O=C(N[C@@H]1CCCCC[C@H]1O)c1ccc(F)c(NC(=O)c2cnc3ccccn23)c1` [F12, N-(2-fluoro-5-{[(1R,2R)-2-hydroxycycloheptyl]carbamoyl}phenyl)imidazo[1,2-a]pyridine-3-carboxamide], for which the IC50 is 79 nM.

`CN(C)CCCOc1ccc(-c2ccn3c(C(=O)Nc4cc(C(=O)NC5Cc6ccccc6C5O)ccc4F)cnc3c2)cn1` (stereo not shown) [F13, 7-{6-[3-(dimethylamino)propoxy]pyridin-3-yl}-N-{2-fluoro-5-[(1-hydroxy-2,3-dihydro-1H-inden-2-yl)carbamoyl]phenyl}imidazo[1,2-a]pyridine-3-carboxamide]: the half-inhibitory concentration (IC50) was found to be 56 nM.

With `Cn1nccc1-c1ccn2c(C(=O)Nc3cc(C(=O)NC4Cc5ccccc5C4O)ccc3F)cnc2c1` (stereo not shown) [F14, N-{2-fluoro-5-[(1-hydroxy-2,3-dihydro-1H-inden-2-yl)carbamoyl]phenyl}-7-(1-methyl-1H-pyrazol-5-yl)imidazo[1,2-a]pyridine-3-carboxamide], the half-maximal inhibitory concentration (IC50) was 32 nM.

As for `Cn1nccc1-c1ccn2c(C(=O)Nc3cc(C(=O)N[C@@H]4Cc5ccccc5[C@@H]4O)ccc3F)cnc2c1` [F15, N-(2-fluoro-5-{[(1S,2R)-1-hydroxy-2,3-dihydro-1H-inden-2-yl]carbamoyl}phenyl)-7-(1-methyl-1H-pyrazol-5-yl)imidazo[1,2-a]pyridine-3-carboxamide], the IC50 was 44 nM.

As for `Cn1nccc1-c1ccn2c(C(=O)Nc3cc(C(=O)N[C@H]4Cc5ccccc5[C@H]4O)ccc3F)cnc2c1` [F16, N-(2-fluoro-5-{[(1R,2S)-1-hydroxy-2,3-dihydro-1H-inden-2-yl]carbamoyl}phenyl)-7-(1-methyl-1H-pyrazol-5-yl)imidazo[1,2-a]pyridine-3-carboxamide], the IC50 was determined as 57 nM.

As to `Cc1ccc2ncc(C(=O)Nc3cc(C(=O)N[C@@H]4c5ccccc5C[C@@H]4O)ccc3F)n2c1` [F17, N-(2-fluoro-5-{[(1R,2S)-2-hydroxy-2,3-dihydro-1H-inden-1-yl]carbamoyl}phenyl)-6-methylimidazo[1,2-a]pyridine-3-carboxamide], the IC50 was 60 nM.

Consider `O=C(N[C@@H]1c2ccccc2C[C@@H]1O)c1ccc(F)c(NC(=O)c2cnc3cc(F)ccn23)c1` [F18, 7-fluoro-N-(2-fluoro-5-{[(1R,2S)-2-hydroxy-2,3-dihydro-1H-inden-1-yl]carbamoyl}phenyl)imidazo[1,2-a]pyridine-3-carboxamide], for which the half-maximal inhibitory concentration (IC50) worked out at 86 nM.

For `COc1ccc2ncc(C(=O)Nc3cc(C(=O)N[C@@H]4c5ccccc5C[C@@H]4O)ccc3F)n2c1` [F19, N-(2-fluoro-5-{[(1R,2S)-2-hydroxy-2,3-dihydro-1H-inden-1-yl]carbamoyl}phenyl)-6-methoxyimidazo[1,2-a]pyridine-3-carboxamide], the concentration for half-maximal inhibition (IC50) came to 82 nM.

`Cc1ccc(C(=O)N[C@@H]2c3ccccc3C[C@@H]2O)cc1NC(=O)c1cnc2ccccn12` [F20, N-(5-{[(1R,2S)-2-hydroxy-2,3-dihydro-1H-inden-1-yl]carbamoyl}-2-methylphenyl)imidazo[1,2-a]pyridine-3-carboxamide]: the half-maximal inhibitory concentration (IC50) amounted to 29 nM.

As to `Cc1ccc(C(=O)N[C@H]2c3ccccc3C[C@H]2O)cc1NC(=O)c1cnc2ccccn12` [F21, N-(5-{[(1S,2R)-2-hydroxy-2,3-dihydro-1H-inden-1-yl]carbamoyl}-2-methylphenyl)imidazo[1,2-a]pyridine-3-carboxamide], the half-maximal inhibitory concentration (IC50) amounted to 95 nM.

For `Cc1ccc(C(=O)N[C@@H]2c3ccccc3C[C@H]2O)cc1NC(=O)c1cnc2ccccn12` [F22, N-(5-{[(1R,2R)-2-hydroxy-2,3-dihydro-1H-inden-1-yl]carbamoyl}-2-methylphenyl)imidazo[1,2-a]pyridine-3-carboxamide], the IC50 was 28 nM.

As to `Cc1ccc(C(=O)N[C@H]2c3ccccc3C[C@@H]2O)cc1NC(=O)c1cnc2ccccn12` [F23, N-(5-{[(1S,2S)-2-hydroxy-2,3-dihydro-1H-inden-1-yl]carbamoyl}-2-methylphenyl)imidazo[1,2-a]pyridine-3-carboxamide], the half-maximal inhibitory concentration (IC50) is 21 nM.

Take `O=C(N[C@@H]1CCCC[C@H]1CO)c1ccc(F)c(NC(=O)c2cnc3ccccn23)c1` [F24, N-(2-fluoro-5-{[(1R,2R)-2-(hydroxymethyl)cyclohexyl]carbamoyl}phenyl)imidazo[1,2-a]pyridine-3-carboxamide]: the 50% inhibitory concentration (IC50) was 94 nM.

With `[2H]c1c([2H])c([2H])n2c(C(=O)Nc3cc(C(=O)N[C@@H]4c5ccccc5C[C@@H]4O)ccc3F)cnc2c1[2H]` [F25, N-(2-fluoro-5-{[(1R,2S)-2-hydroxy-2,3-dihydro-1H-inden-1-yl]carbamoyl}phenyl)-5,6,7,8-tetrahydrogenioimidazo[1,2-a]pyridine-3-carboxamide], the IC50 amounted to 65 nM.

`Cc1ccn2c(C(=O)Nc3cc(C(=O)N[C@@H]4c5ccccc5C[C@@H]4O)ccc3F)cnc2c1` [F26, N-(2-fluoro-5-{[(1R,2S)-2-hydroxy-2,3-dihydro-1H-inden-1-yl]carbamoyl}phenyl)-7-methylimidazo[1,2-a]pyridine-3-carboxamide]: the half-maximal inhibitory concentration (IC50) is 49 nM.

In the case of `O=C(N[C@@H]1c2ccccc2C[C@@H]1O)c1ccc(F)c(NC(=O)c2cnc3ccc(F)cn23)c1` [F27, 6-fluoro-N-(2-fluoro-5-{[(1R,2S)-2-hydroxy-2,3-dihydro-1H-inden-1-yl]carbamoyl}phenyl)imidazo[1,2-a]pyridine-3-carboxamide], the concentration for half-maximal inhibition (IC50) worked out at 168 nM.

Consider `Cc1ccc2ncc(C(=O)Nc3cc(C(=O)N[C@@H]4c5ccc(F)cc5C[C@@H]4O)ccc3F)n2c1` [F28, N-(2-fluoro-5-{[(1R,2S)-5-fluoro-2-hydroxy-2,3-dihydro-1H-inden-1-yl]carbamoyl}phenyl)-6-methylimidazo[1,2-a]pyridine-3-carboxamide], for which the concentration for half-maximal inhibition (IC50) was 129 nM.

Turning to `Cc1ccc2ncc(C(=O)Nc3cc(C(=O)N[C@@H]4c5cc(F)ccc5C[C@@H]4O)ccc3F)n2c1` [F29, N-(2-fluoro-5-{[(1R,2S)-6-fluoro-2-hydroxy-2,3-dihydro-1H-inden-1-yl]carbamoyl}phenyl)-6-methylimidazo[1,2-a]pyridine-3-carboxamide], the half-maximal inhibitory concentration (IC50) amounted to 105 nM.

Consider `Cc1ccc(C(=O)NCc2ccccc2N2CCCC(O)C2)cc1NC(=O)c1cnc2ccccn12` (stereo not shown) [F30, N-[5-({[2-(3-hydroxypiperidin-1-yl)phenyl]methyl}carbamoyl)-2-methylphenyl]imidazo[1,2-a]pyridine-3-carboxamide], for which the half-inhibitory concentration (IC50) stood at 27 nM.

`Cc1ccc(C(=O)NCc2ccccc2N2CCC(O)C2)cc1NC(=O)c1cnc2ccccn12` (stereo not shown) [F31, N-[5-({[2-(3-hydroxypyrrolidin-1-yl)phenyl]methyl}carbamoyl)-2-methylphenyl]imidazo[1,2-a]pyridine-3-carboxamide]: the half-inhibitory concentration (IC50) was 42 nM.

The same assay, now with this note: Table 2; Rat A10 cells, recombinant rat PDGF-BB, CellTiter-Glo after 68 hours.
Take `COc1ccc2ncc(C(=O)Nc3cc(C(=O)N[C@H]4c5ccccc5C[C@H]4O)ccc3F)n2c1` [F35, N-(2-fluoro-5-{[(1S,2R)-2-hydroxy-2,3-dihydro-1H-inden-1-yl]carbamoyl}phenyl)-6-methoxyimidazo[1,2-a]pyridine-3-carboxamide]: the half-maximal inhibitory concentration (IC50) worked out at 228 nM.

On to `Cc1ccc2ncc(C(=O)Nc3cc(C(=O)N[C@H]4c5ccccc5C[C@H]4O)ccc3F)n2c1` [F36, N-(2-fluoro-5-{[(1S,2R)-2-hydroxy-2,3-dihydro-1H-inden-1-yl]carbamoyl}phenyl)-6-methylimidazo[1,2-a]pyridine-3-carboxamide], for which the IC50 was 234 nM.
